Experimental data: US20230183237A1, “COMPETITIVE AND NONCOMPETITIVE INHIBITORS OF THE MUSCARINIC ACETYLCHOLINE RECEPTOR M5” (Vanderbilt University, priority 2020, published 2023)

Molecular target: T1, hM5 (Homo sapiens, UniProt P08912)
T1 construct: expressed in transfected cells
T1 sequence (P08912 1-532): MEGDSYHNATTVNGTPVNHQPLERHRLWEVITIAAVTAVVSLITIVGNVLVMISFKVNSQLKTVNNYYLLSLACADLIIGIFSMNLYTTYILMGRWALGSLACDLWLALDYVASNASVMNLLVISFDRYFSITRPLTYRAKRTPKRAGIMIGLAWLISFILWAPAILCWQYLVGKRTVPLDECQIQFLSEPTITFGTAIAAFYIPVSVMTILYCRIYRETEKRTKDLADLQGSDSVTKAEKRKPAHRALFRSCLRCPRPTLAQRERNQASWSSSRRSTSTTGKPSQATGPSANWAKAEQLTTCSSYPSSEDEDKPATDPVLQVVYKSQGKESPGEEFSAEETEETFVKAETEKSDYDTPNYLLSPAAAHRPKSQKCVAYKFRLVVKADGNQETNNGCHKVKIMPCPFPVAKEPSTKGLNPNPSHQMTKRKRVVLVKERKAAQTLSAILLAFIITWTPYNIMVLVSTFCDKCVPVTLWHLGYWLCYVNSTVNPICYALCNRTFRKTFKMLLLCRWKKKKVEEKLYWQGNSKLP
Experiment: Calcium mobilization concentration-response (IC50 vs EC80 acetylcholine), CHO hM5
Assay type: cell-based
Settings: CELL LINE hM5; vs EC80 acetylcholine; read-out: IC50
How it was run: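 IC50 values derive from percent maximal acetylcholine response after an EC80 ACh addition, measured as kinetic calcium fluorescence (static ratio, max−min). Test compounds were added 140 s before agonist. Cells: stable hM5-CHO in HEPES-buffered HBSS with 2.5 mM probenecid, pH 7.4; ≥3 independent triplicate determinations.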

Question: How did the IC50 turn out when [2H]C1([2H])CC(c2cn3ncnc3cc2Cl)CC([2H])([2H])N1S(=O)(=O)c1cn(C)nn1 [Compound 579, 7-chloro-6-(1-((1-methyl-1H-1,2,3-triazol-4-yl)sulfonyl)piperidin-4-yl-2,2,6,6-d4)-[1,2,4]triazolo[1,5-a]pyridine] was run?
Answer: 29 nM

Question: [2H]C1([2H])CC(c2cn3ncnc3cc2Cl)CC([2H])([2H])N1S(=O)(=O)c1nncn1C [Compound 580, 7-chloro-6-(1-((4-methyl-4H-1,2,4-triazol-3-yl)sulfonyl)piperidin-4-yl-2,2,6,6-d4)-[1,2,4]triazolo[1,5-a]pyridine] was tested. Which IC50 did it give?
Answer: 98 nM

Question: For Cc1cc2nccn2cc1C1CCN(S(=O)(=O)c2cnn(C)c2Cl)CC1 [Compound 581, 6-(1-((5-chloro-1-methyl-1H-pyrazol-4-yl)sulfonyl)piperidin-4-yl)-7-methylimidazo[1,2-a]pyridine], which IC50 is on record?
Answer: 25 nM

Question: With Cc1ncc(S(=O)(=O)N2CCC(c3cn4ccnc4cc3C)CC2)o1 [Compound 582, 2-methyl-5-((4-(7-methylimidazo[1,2-a]pyridin-6-yl)piperidin-1-yl)sulfonyl)oxazole] as the compound, how does the IC50 read?
Answer: 831 nM

Question: How did the IC50 turn out when Cc1ncc(S(=O)(=O)N2CCC(c3cn4ccnc4cc3C)CC2)s1 [Compound 583, 2-methyl-5-((4-(7-methylimidazo[1,2-a]pyridin-6-yl)piperidin-1-yl)sulfonyl)thiazole] was run?
Answer: 2070 nM

Question: Which IC50 does the source give for CCc1cc2ncnn2cc1C1CCN(S(=O)(=O)c2cnn(C)c2OC)CC1 [Compound 584, 7-ethyl-6-(1-((5-methoxy-1-methyl-1H-pyrazol-4-yl)sulfonyl)piperidin-4-yl)-[1,2,4]triazolo[1,5-a]pyridine] here?
Answer: 77 nM

Question: For COc1c(S(=O)(=O)N2CCC(c3cn4ncnc4cc3C(F)(F)F)CC2)cnn1C [Compound 585, 6-(1-((5-methoxy-1-methyl-1H-pyrazol-4-yl)sulfonyl)piperidin-4-yl)-7-(trifluoromethyl)-[1,2,4]triazolo[1,5-a]pyridine], which IC50 is on record?
Answer: 67 nM

Question: How did the IC50 turn out when COc1c(S(=O)(=O)N2CCC(F)(c3cn4ncnc4cc3C)CC2)cnn1C [Compound 586, 6-(4-fluoro-1-((5-methoxy-1-methyl-1H-pyrazol-4-yl)sulfonyl)piperidin-4-yl)-7-methyl-[1,2,4]triazolo[1,5-a]pyridine] was run?
Answer: 147 nM

Question: How did the IC50 turn out when Cn1ncc(S(=O)(=O)N2CCC(c3cc(-c4ccco4)n[nH]3)CC2)c1Cl [Compound 587] was run?
Answer: 1460 nM

Question: How did the IC50 turn out when Cc1cc2ncnn2cc1C1(F)CCN(S(=O)(=O)c2cn(C)nn2)CC1 [Compound 588, 6-(4-fluoro-1-((1-methyl-1H-1,2,3-triazol-4-yl)sulfonyl)piperidin-4-yl)-7-methyl-[1,2,4]triazolo[1,5-a]pyridine] was run?
Answer: 2110 nM

Question: Which IC50 does the source give for Cc1ncc(S(=O)(=O)N2CCC(c3cn4ccnc4cc3Cl)CC2)s1 [Compound 589, 5-((4-(7-chloroimidazo[1,2-a]pyridin-6-yl)piperidin-1-yl)sulfonyl)-2-methylthiazole] here?
Answer: 530 nM

Question: With Cn1nc(-c2ccco2)cc1C1CCN(S(=O)(=O)c2cnn(C)c2Cl)CC1 [Compound 590, 1-((5-Chloro-1-methyl-1H-pyrazol-4-yl)sulfonyl)-4-(3-(furan-2-yl)-1-methyl-1H-pyrazol-5-yl)piperidine] as the compound, how does the IC50 read?
Answer: 3100 nM

Question: How did the IC50 turn out when Cn1nc(C2CCN(S(=O)(=O)c3cnn(C)c3Cl)CC2)cc1-c1ccco1 [Compound 591, 1-((5-Chloro-1-methyl-1H-pyrazol-4-yl)sulfonyl)-4-(5-(furan-2-yl)-1-methyl-1H-pyrazol-3-yl)piperidine] was run?
Answer: > 10000 nM

Question: Cn1ncc(S(=O)(=O)N2CCC(c3c4c(nn3C)CCCC4)CC2)c1Cl [Compound 592, 3-(1-((5-chloro-1-methyl-1H-pyrazol-4-yl)sulfonyl)piperidin-4-yl)-2-methyl-4,5,6,7-tetrahydro-2H-indazole] was tested. Which IC50 did it give?
Answer: 325 nM

Question: With Cc1ncc(S(=O)(=O)N2CCC(c3c4c(nn3C)CCCC4)CC2)s1 [Compound 593, 2-methyl-5-((4-(2-methyl-4,5,6,7-tetrahydro-2H-indazol-3-yl)piperidin-1-yl)sulfonyl)thiazole] as the compound, how does the IC50 read?
Answer: > 10000 nM

Question: [2H]C1([2H])CC(c2cn3ncnc3cc2C(F)F)CC([2H])([2H])N1S(=O)(=O)c1cnc(C)o1 [Compound 594, 5-((4-(7-(difluoromethyl)-[1,2,4]triazolo[1,5-a]pyridin-6-yl)piperidin-1-yl-2,2,6,6-d4)sulfonyl)-2-methyloxazole] was tested. Which IC50 did it give?
Answer: 228 nM

Question: How did the IC50 turn out when [2H]C1([2H])CC(c2cn3ncnc3cc2C(F)F)CC([2H])([2H])N1S(=O)(=O)c1cn(C)nn1 [Compound 595, 7-(difluoromethyl)-6-(1-((1-methyl-1H-1,2,3-triazol-4-yl)sulfonyl)piperidin-4-yl-2,2,6,6-d4)-[1,2,4]triazolo[1,5-a]pyridine] was run?
Answer: 784 nM

Question: How did the IC50 turn out when Cc1cc2ncnn2cc1C1CCN(S(=O)(=O)c2cnn(C)c2CN2Cc3ncccc3C2=O)CC1 [Compound 597, 6-((1-Methyl-4-((4-(7-methyl-[1,2,4]triazolo[1,5-a]pyridin-6-yl)piperidin-1-yl)sulfonyl)-1H-pyrazol-5-yl)methyl)-6,7-dihydro-5H-pyrrolo[3,4-b]pyridin-5-one] was run?
Answer: > 10000 nM

Question: With Cc1cc2ncnn2cc1C1CCN(S(=O)(=O)c2cnn(C)c2-c2scnc2C)CC1 [Compound 598, 4-Methyl-5-(1-methyl-4-((4-(7-methyl-[1,2,4]triazolo[1,5-a]pyridin-6-yl)piperidin-1-yl)sulfonyl)-1H-pyrazo1-5-yl)thiazole] as the compound, how does the IC50 read?
Answer: 804 nM

Question: With Cc1nnc(S(=O)(=O)N2CCC(c3cn4ncnc4cc3Cl)CC2)[nH]1 [Compound 599, 7-chloro-6-(1-((5-methyl-4H-1,2,4-triazol-3-yl)sulfonyl)piperidin-4-yl)-[1,2,4]triazolo[1,5-a]pyridine] as the compound, how does the IC50 read?
Answer: > 10000 nM

Question: With COc1ncc(S(=O)(=O)N2CCC(c3cn4ncnc4cc3C)CC2)s1 [Compound 600, 2-methoxy-5-((4-(7-methyl-[1,2,4]triazolo[1,5-a]pyridin-6-yl)piperidin-1-yl)sulfonyl)thiazole] as the compound, how does the IC50 read?
Answer: 529 nM

Question: With Cc1cc2ncnn2cc1C1CCN(S(=O)(=O)c2scnc2C)CC1 [Compound 601, 4-methyl-5-((4-(7-methyl-[1,2,4]triazolo[1,5-a]pyridin-6-yl)piperidin-1-yl)sulfonyl)thiazole] as the compound, how does the IC50 read?
Answer: 5240 nM

Question: How did the IC50 turn out when Cc1cc2ncnn2cc1C1CCN(S(=O)(=O)c2cnn(C)c2OC(C)C)CC1 [Compound 603, 6-(1-((5-isopropoxy-1-methyl-1H-pyrazol-4-yl)sulfonyl)piperidin-4-yl)-7-methyl-[1,2,4]triazolo[1,5-a]pyridine] was run?
Answer: 244 nM

Question: For CC(C)Oc1c(S(=O)(=O)N2CCC(c3cn4ncnc4cc3Cl)CC2)cnn1C [Compound 604, 7-chloro-6-(1-((5-isopropoxy-1-methyl-1H-pyrazol-4-yl)sulfonyl)piperidin-4-yl)-[1,2,4]triazolo[1,5-a]pyridine], which IC50 is on record?
Answer: 159 nM

Question: How did the IC50 turn out when Cc1cc(S(=O)(=O)N2CCC(c3cn4ncnc4cc3CF)CC2)sn1 [Compound 605, 5-((4-(7-(Fluoromethyl)-[1,2,4]triazolo[1,5-a]pyridin-6-yl)piperidin-1-yl)sulfonyl)-3-methylisothiazole] was run?
Answer: 26 nM

Question: For Cc1cc(S(=O)(=O)N2CCC(c3cn4ncnc4cc3CCl)CC2)sn1 [Compound 606, 5-((4-(7-(chloromethyl)-[1,2,4]triazolo[1,5-a]pyridin-6-yl)piperidin-1-yl)sulfonyl)-3-methylisothiazole], which IC50 is on record?
Answer: 126 nM

Question: Cc1nnc(S(=O)(=O)N2CCC(c3cn4ncnc4cc3Cl)CC2)o1 [Compound 607] was tested. Which IC50 did it give?
Answer: 151 nM

Question: With Cc1nsc(S(=O)(=O)N2CCC(c3cn4ncnc4cc3Cl)CC2)n1 [Compound 608, 5-((4-(7-Chloro-[1,2,4]triazolo[1,5-a]pyridin-6-yl)piperidin-1-yl)sulfonyl)-3-methyl-1,2,4-thiadiazole] as the compound, how does the IC50 read?
Answer: 234 nM

Question: For [2H]c1nc2cc(Cl)c(C3=CCN(S(=O)(=O)c4cnc(C)o4)CC3)cn2n1 [Compound 610, 5-((4-(7-chloro-[1,2,4]triazolo[1,5-a]pyridin-6-yl-2-d)-3,6-dihydropyridin-1(2H)-yl)sulfonyl)-2-methyloxazole], which IC50 is on record?
Answer: 40 nM

Question: Which IC50 does the source give for [2H]c1nc2cc(Cl)c(C3=CCN(S(=O)(=O)c4cnc(C)s4)CC3)cn2n1 [Compound 611, 5-((4-(7-chloro-[1,2,4]triazolo[1,5-a]pyridin-6-yl-2-d)-3,6-dihydropyridin-1(2H)-yl)sulfonyl)-2-methylthiazole] here?
Answer: 97 nM

Question: [2H]C([2H])([2H])Oc1c(S(=O)(=O)N2CCC(c3cn4ncnc4cc3C)CC2)cnn1C [Compound 612, 6-(1-((5-(methoxy-d3)-1-methyl-1H-pyrazol-4-yl)sulfonyl)piperidin-4-yl)-7-methyl-[1,2,4]triazolo[1,5-a]pyridine] was tested. Which IC50 did it give?
Answer: 18 nM

Question: How did the IC50 turn out when [2H]C([2H])([2H])Oc1c(S(=O)(=O)N2CCC(c3cn4ncnc4cc3Cl)CC2)cnn1C [Compound 613, 7-chloro-6-(1-((5-(methoxy-d3)-1-methyl-1H-pyrazol-4-yl)sulfonyl)piperidin-4-yl)-[1,2,4]triazolo[1,5-a]pyridine] was run?
Answer: 22 nM

Question: With [2H]C([2H])([2H])Oc1c(S(=O)(=O)N2CCC(c3cn4ncnc4c(F)c3C)CC2)cnn1C [Compound 614, 8-fluoro-6-(1-((5-(methoxy-d3)-1-methyl-1H-pyrazol-4-yl)sulfonyl)piperidin-4-yl)-7-methyl-[1,2,4]triazolo[1,5-a]pyridine] as the compound, how does the IC50 read?
Answer: 59 nM
